Results taken from publication PMC10322718, “Expanding the substrate scope of pyrrolysyl-transfer RNA synthetase enzymes to include non-α-amino acids in vitro and in vivo” (Nature Chemistry, 2023).

B1: MaFRSA (Methanomethylophilus alvus pyrrolysyl-tRNA synthetase, MaPylRS, N166A V168A) (enzyme)
chain: MTVKYTDAQIQRLREYGNGTYEQKVFEDLASRDAAFSKEMSVASTDNEKKIKGMIANPSRHGLTQLMNDIADALVAEGFIEVRTPIFISKDALARMTITEDKPLFKQVFWIDEKRALRPMLAPNLYSVMRDLRDHTDGPVKIFEMGSCFRKESHSGMHLEEFTMLALADMGPRGDATEVLKNYISVVMKAAGLPDYDLVQEESDVYKETIDVEINGQEVCSAAVGPHYLDAAHDVHEPWSGAGFGLERLLTIREKYSTVKKGGASISYLNGAKIN
notes: Pyrrolysyl-tRNA synthetase (PylRS) of Methanomethylophilus alvus with N166A and V168A; construct GSS linker-6xHis-SSG linker-thrombin site-MaFRSA from pET32a-6xHis-thrombin-MaFRSA, tag removed with thrombin; Crystallised with m-CF3-2-benzylmalonate and AMP-PNP; source: E. coli BL21-Gold (DE3)pLysS, purified (TALON, thrombin cleavage, Superdex 200); not shown: 6xHis, N-terminal, cleaved

Columns and labels:
MaPylRS = molecular target: T1, MaPylRS (Methanomethylophilus alvi, UniProt M9SC49, N166A/V168A); test: X-ray crystal structure, […] Å; type: binding; details: ternary complex with AMP-PNP; active site, two orientations (chains A and B)
T1 construct: gene MMALV_11280; pET32a, E. coli BL21-Gold(DE3)pLysS, Ni-NTA; for crystals 6xHis-thrombin site N-terminal, tag cut; dimer in crystal

[1] = molecular target: the molecule itself; test: crystal structure; MaFRSA with 100 mM m-CF3-2-BMA and 10 mM AMP-PNP, hanging-drop vapour diffusion at 18 °C, 10 mM Tris-HCl pH 7.4, 26% PEG 3,350; space group I4, two copies in the asymmetric unit, 1.8 Å

| Molecule | X-ray crystal structure, 1.8 Å (MaPylRS) | binding result [1] |
| --- | --- | --- |
| O=C(O)C(Cc1cccc(C(F)(F)F)c1)C(=O)O [compound 18, m-CF3-2-BMA] | we solved the crystal structure of MaFRSA bound to both m-CF3-2-BMA and the non-hydrolysable ATP analogue |  |
| B1 |  | binds |
